The text below walks through data of patent publication US11535630B2, “Apelin receptor (APJ) agonists and uses thereof” (Research Triangle Institute, priority 2015, dated 2022).

As usually defined, the EC50 is the midpoint of the concentration-response curve.

The structures appear in SMILES notation.

In the first assay the target is T1, apelin receptor (APJ) (Homo sapiens, UniProt P35414).
T1 sequence (P35414 1-380): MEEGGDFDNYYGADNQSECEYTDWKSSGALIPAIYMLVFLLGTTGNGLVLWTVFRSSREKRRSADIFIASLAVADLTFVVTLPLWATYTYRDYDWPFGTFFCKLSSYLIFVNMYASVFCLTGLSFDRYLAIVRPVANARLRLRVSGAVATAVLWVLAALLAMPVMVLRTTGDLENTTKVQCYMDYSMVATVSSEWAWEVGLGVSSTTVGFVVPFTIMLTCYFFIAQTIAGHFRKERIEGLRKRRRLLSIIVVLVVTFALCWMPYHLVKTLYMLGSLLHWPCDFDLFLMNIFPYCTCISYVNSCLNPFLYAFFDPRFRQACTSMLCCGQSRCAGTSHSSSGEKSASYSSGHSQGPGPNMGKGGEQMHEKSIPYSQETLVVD
Kind of assay: In vitro apelin agonist activity (methods of Giddings et al., Apelin-13 as positive control). It counts as cell-based. The settings on record: EC50 (nM) Ave, in vitro apelin agonist activity, methods of Giddings et al., Apelin-13 as positive control. From the text: Characterization of the Apelin Agonist Activity of the Compounds
1:39-47, the contents of which are hereby incorporated by reference in its entirety. Using the methods described in Giddings et al. and Apelin-13 as a positive control.
Compound `O=C(C[C@H](CCN1CCOCC1)NC(=O)c1cc(-c2ccccc2C(F)(F)F)n(C2CCCC2)n1)NC1CCC1` [compound 491, (3S)-N-cyclobutyl-3-({1-cyclopentyl-5-[2-(trifluoromethyl)phenyl]-1H-pyrazol-3-yl}formamido)-5-(morpholin-4-yl)pentanamide] registered an EC50 of 68 nM. Same read-out and setting: then `O=C(C[C@H](CCN1CCCC[C@H]1C(F)(F)F)NC(=O)c1cc(-c2ccccc2C(F)(F)F)n(C2CCCC2)n1)NC1CCC1` [compound 496, (3S)-N-cyclobutyl-3-({1-cyclopentyl-5-[2-(trifluoromethyl)phenyl]-1H-pyrazol-3-yl}formamido)-5-[(2S)-2-(trifluoromethyl)piperidin-1-yl]pentanamide], with 30 nM.

Still in this assay, the particulars now being: in vitro apelin agonist activity, methods of Giddings et al., Apelin-13 as positive control; read-out: EC50 (nM) Ave.
Take `O=C(C[C@H](CCN1CCCC(F)(F)C1)NC(=O)c1cc(-c2ncccc2C(F)(F)F)n(C2CCCC2)n1)NC1CCC1` [compound 479, (3S)-N-cyclobutyl-3-({1-cyclopentyl-5-[3-(trifluoromethyl)pyridin-2-yl]-1H-pyrazol-3-yl}formamido)-5-(3,3-difluoropiperidin-1-yl)pentanamide]: the EC50 was found to be 0.86 nM. Take `O=C(C[C@H](CCN1CCC(F)(F)C1)NC(=O)c1cc(-c2ccccc2C(F)(F)F)n(C2CCCC2)n1)NC1CCC1` [compound 480, (3S)-N-cyclobutyl-3-({1-cyclopentyl-5-[2-(trifluoromethyl)phenyl]-1H-pyrazol-3-yl}formamido)-5-(3,3-difluoropyrrolidin-1-yl)pentanamide]: the EC50 was 2.76 nM. With `N#CC1CCN(CC[C@@H](CC(=O)NC2CCC2)NC(=O)c2cc(-c3ccccc3C(F)(F)F)n(C3CCCC3)n2)C1` (stereo partly drawn) [compound 481, (3S)-5-(3-cyanopyrrolidin-1-yl)-N-cyclobutyl-3-({1-cyclopentyl-5-[2(trifluoromethyl)phenyl]-1H-pyrazol-3-yl}formamido)pentanamide], the EC50 was 1.96 nM. `CN1CC(NC(=O)C[C@H](CCc2ccc(F)cc2)NC(=O)c2cc(-c3ccccc3C(F)(F)F)n(C3CCCC3)n2)C1` [compound 482, (3S)-3-({1-cyclopentyl-5-[2-(trifluoromethyl)phenyl]-1H-pyrazol-3-yl}formamido)-5-(4-fluorophenyl)-N-(1-methylazetidin-3-yl)pentanamide]: the EC50 was 474 nM.

Take `CN(CC[C@@H](CC(=O)NC1CCC1)NC(=O)c1cc(-c2ccccc2C(F)(F)F)n(C2CCCC2)n1)C1CCCCC1` [compound 483]: the EC50 is 14 nM.

For the compound `O=C(O)C[C@H](CCC1CCCCC1)NC(=O)c1cc(-c2ccccc2C(F)(F)F)n(C2CCCC2)n1` [compound 484, (3S)-5-cyclohexyl-3-({1-cyclopentyl-5-[2-(trifluoromethyl)phenyl]-1H-pyrazol-3-yl}formamido)pentanoic acid], the EC50 amounted to 1520 nM. Still for that read-out and setting: the value for `O=C(O)C[C@H](CCN1CCC(F)(F)C1)NC(=O)c1cc(-c2ccccc2C(F)(F)F)n(C2CCCC2)n1` [compound 485, (3S)-3-({1-cyclopentyl-5-[2-(trifluoromethyl)phenyl]-1H-pyrazol-3-yl}formamido)-5-(3,3-difluoropyrrolidin-1-yl)pentanoic acid] was 110 nM; that for `O=C(O)C[C@H](CCN1CCOCC1)NC(=O)c1cc(-c2ccccc2C(F)(F)F)n(C2CCCC2)n1` [compound 486, (3S)-3-({1-cyclopentyl-5-[2-(trifluoromethyl)phenyl]-1H-pyrazol-3-yl}formamido)-5-(morpholin-4-yl)pentanoic acid] was 931 nM; that for `O=C(O)C[C@H](CCN1CCCC[C@H]1C(F)(F)F)NC(=O)c1cc(-c2ccccc2C(F)(F)F)n(C2CCCC2)n1` [compound 487, (3S)-3-({1-cyclopentyl-5-[2-(trifluoromethyl)phenyl]-1H-pyrazol-3-yl}formamido)-5-[(2S)-2-(trifluoromethyl)piperidin-1-yl]pentanoic acid] was 277 nM. Still for that read-out and setting: then `O=C(O)C[C@H](CCN1CCCC[C@@H]1C(F)(F)F)NC(=O)c1cc(-c2ccccc2C(F)(F)F)n(C2CCCC2)n1` [compound 488, (3S)-3-({1-cyclopentyl-5-[2-(trifluoromethyl)phenyl]-1H-pyrazol-3-yl}formamido)-5-[(2R)-2-(trifluoromethyl)piperidin-1-yl]pentanoic acid], with 1340 nM. On the same count and under the same terms, then `CN(C(=O)C[C@H](CCN1CCCC[C@@H]1C(F)(F)F)NC(=O)c1cc(-c2ccccc2C(F)(F)F)n(C2CCCC2)n1)c1nccs1` [compound 489, (3S)-3-({1-cyclopentyl-5-[2-(trifluoromethyl)phenyl]-1H-pyrazol-3-yl}formamido)-N-methyl-N-(1,3-thiazol-2-yl)-5-[(2R)-2-(trifluoromethyl)piperidin-1-yl]pentanamide], with 161 nM; and `CN(CC[C@@H](CC(=O)NC1CCC1)NC(=O)c1cc(-c2ccccc2C(F)(F)F)n(C2CCCC2)n1)C1CCCC1` [compound 490, (3S)-N-cyclobutyl-5-[cyc1opentyl(methyl)amino]-3-({1-cyclopentyl-5-[2(trifluoromethyl)phenyl]-1H-pyrazol-3-yl}formamido)pentanamide], with 10.3 nM. Turning to `CCCN(CCC)CC[C@@H](CC(=O)NC1CCC1)NC(=O)c1cc(-c2ccccc2C(F)(F)F)n(C2CCCC2)n1` [compound 492, (3S)-N-cyclobutyl-3-({1-cyclopentyl-5-[2-(trifluoromethyl)phenyl]-1H-pyrazol-3-yl}formamido)-5-(dipropylamino)pentanamide], the EC50 worked out at 36 nM. Same read-out and setting: the value for `CC(C)CN(C)CC[C@@H](CC(=O)NC1CCC1)NC(=O)c1cc(-c2ccccc2C(F)(F)F)n(C2CCCC2)n1` [compound 493, (3S)-N-cyclobutyl-3-({1-cyclopentyl-5-[2-(trifluoromethyl)phenyl]-1H-pyrazol-3-yl}formamido)-5-[methyl(2-methylpropyl)amino]pentanamide] was 24 nM; that for `O=C(O)C[C@H](CCN1CCCCC1)NC(=O)c1cc(-c2ccccc2C(F)(F)F)n(C2CCCC2)n1` [compound 494, (3S)-3-({1-cyclopentyl-5-[2-(trifluoromethyl)phenyl]-1H-pyrazol-3-yl}formamido)-5-(piperidin-1-yl)pentanoic acid] was 215 nM; that for `CN(C(=O)C[C@H](CCN1CCOCC1)NC(=O)c1cc(-c2ccccc2C(F)(F)F)n(C2CCCC2)n1)c1nccs1` [compound 495, (3S)-3-({1-cyclopentyl-5-[2-(trifluoromethyl)phenyl]-1H-pyrazol-3-yl}formamido)-N-methyl-5-(morpholin-4-yl)-N-(1,3-thiazol-2-yl)pentanamide] was 165 nM. Same read-out and setting: the value for `O=C(C[C@H](CCN1C2CCCC1CC2)NC(=O)c1cc(-c2ccccc2C(F)(F)F)n(C2CCCC2)n1)NC1CCC1` [compound 498, (3S)-5-{8-azabicyclo[3.2.1]octan-8-yl}-N-cyclobutyl-3-({1-cyclopentyl-5-[2-(trifluoromethyl)phenyl]-1H-pyrazol-3-yl}formamido)pentanamide] was 105 nM. On to `O=C(O)C[C@H](CCN1CCCC1)NC(=O)c1cc(-c2ccccc2C(F)(F)F)n(C2CCCC2)n1` [compound 499, (3S)-3-({1-cyclopentyl-5-[2-(trifluoromethyl)phenyl]-1H-pyrazol-3-yl}formamido)-5-(pyrrolidin-1-yl)pentanoic acid], for which the EC50 worked out at 548 nM. Same read-out and setting: then `Cc1cnn(CC[C@@H](CC(=O)N(C)c2nccs2)NC(=O)c2cc(-c3ccccc3C(F)(F)F)n(C3CCCC3)n2)c1` [compound 500, (3S)-3-({1-cyclopentyl-5-[2-(trifluoromethyl)phenyl]-1H-pyrazol-3-yl}formamido)-N-methyl-5-(4-methyl-1H-pyrazol-1-yl)-N-(1,3-thiazol-2-yl)pentanamide], with 79 nM. As to `Cc1cnn(CC[C@@H](CC(=O)NC2CCC2)NC(=O)c2cc(-c3ccccc3C(F)(F)F)n(C3CCCC3)n2)c1` [compound 501, (3S)-N-cyclobutyl-3-({1-cyclopentyl-5-[2-(trifluoromethyl)phenyl]-1H-pyrazol-3-yl}formamido)-5-(4-methyl-1H-pyrazol-1-yl)pentanamide], the EC50 was found to be 26 nM. On the same count and under the same terms, the value for `Cc1cc(C)n(CC[C@@H](CC(=O)N(C)c2nccs2)NC(=O)c2cc(-c3ccccc3C(F)(F)F)n(C3CCCC3)n2)n1` [compound 502, (3S)-3-({1-cyclopentyl-5-[2-(trifluoromethyl)phenyl]-1H-pyrazol-3-yl}formamido)-5-(3,5-dimethyl-1H-pyrazol-1-yl)-N-methyl-N-(1,3-thiazol-2-yl)pentanamide] was 77 nM; that for `Cc1cc(C)n(CC[C@@H](CC(=O)NC2CCC2)NC(=O)c2cc(-c3ccccc3C(F)(F)F)n(C3CCCC3)n2)n1` [compound 503, (3S)-N-cyclobutyl-3-({1-cyclopentyl-5-[2-(trifluoromethyl)phenyl]-1H-pyrazol-3-yl}formamido)-5-(3,5-dimethyl-1H-pyrazol-1-yl)pentanamide] was 157 nM; that for `O=C(C[C@H](CCN1CCCC1)NC(=O)c1cc(-c2ccccc2C(F)(F)F)n(C2CCCC2)n1)NC1CCC1` [compound 504, (3S)-N-cyclobutyl-3-({1-cyclopentyl-5-[2-(trifluoromethyl)phenyl]-1H-pyrazol-3-yl}formamido)-5-(pyrrolidin-1-yl)pentanamide] was 59 nM.
